These results are taken from ChEMBL document CHEMBL1201862, “PubChem BioAssay data set” (2004).

What all share (assay): growth of human tumour cells (NCI), 48 h
Assay [1] has as its system SR.
The subject of assay [2] is T47D.
For assay [3], the system named is M14.
Assay [4] relates to PC-3.
In assay [5] the test system is HOP-62.
The test system of assay [6] is NCI-H460.
For assay [7], the system named is MDA-MB-231.
The subject of assay [8] is A549.
The test system of assay [9] is UACC-62.
Assay [10] has as its system MDA-N.
Assay [11] relates to SN12C.
In assay [12] the test system is HCT-116.
In assay [13] the test system is MOLT-4.
In assay [14] the test system is SW-620.
The test system of assay [15] is 786-0.
For assay [16], the system named is CAKI-1.
The test system of assay [17] is SK-MEL-2.
The test system of assay [18] is SK-OV-3.
Assay [19] concerns DU-145.

The structures appear in SMILES notation.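 In this assay, cells in 96-well plates receive the compound at five concentrations for 48 hours. Endpoints are linearly interpolated between the surrounding concentrations. Abbreviation: GI50, concentration required for 50% inhibition of growth.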 Active and inactive are the calls of the source. Cut-off read from the data, not from the text of the source: active = GI50 up to about 1.1 µM and inactive = higher. Where only a bound is given, the exact number is not on record here.

`Cc1ccc(S(=O)(=O)NCc2cccc([N+](=O)[O-])c2)cc1`: the GI50 in assay [1] was 5.3 µM (inactive); in assay [2], > 100 µM (inactive); in assay [3] it was > 100 µM (inactive); in assay [4], > 100 µM (inactive); in assay [5] it was > 100 µM (inactive); in assay [6] it was > 100 µM (inactive). For the same compound, the GI50 in [7], in assay [8], in assay [9], in assay [10], in assay [11] and in assay [12] was > 100 µM (inactive) throughout. The GI50 is 0.136 µM (active) in assay [13]; > 100 µM (inactive) in assay [14]; > 100 µM (inactive) in assay [15]; > 100 µM (inactive) in assay [16]; > 100 µM (inactive) in assay [17]; > 100 µM (inactive) in assay [18]. The GI50 in [19] is > 100 µM (inactive).

In the case of `CC(C)C[C@H](NC(=O)CCc1cccc2ccccc12)B(O)O`, the GI50 in assay [1] was 0.37 µM (active); in assay [2], 1.25 µM (inactive); in [3] it was 0.942 µM (active); in [4], 3.9 µM (inactive); in assay [5], 3.22 µM (inactive); in assay [6], 3.21 µM (inactive). Further, the GI50 in assay [7] is 2.25 µM (inactive); in assay [8] it was 4.74 µM (inactive); in assay [9], 1.3 µM (inactive); in assay [10], 0.452 µM (active); in assay [11], 2.19 µM (inactive); in [12], 0.473 µM (active). Further, the GI50 in assay [13] was 0.375 µM (active); in [14], 0.676 µM (active); in assay [15], 0.923 µM (active); in [16], 0.368 µM (active); in assay [17], 1.03 µM (active); in assay [18], 8.73 µM (inactive). The GI50 in assay [19] is 4.62 µM (inactive).

Turning to `COc1cc(S(=O)(=O)Nc2nc(-c3ccc(/N=C/c4ccccc4O)cc3)cs2)ccc1Cl`, the GI50 in [1] is 34.7 µM (inactive); in [2], 27.4 µM (inactive); in assay [3], 30.1 µM (inactive); in [4], 39.1 µM (inactive); in [5], 40.3 µM (inactive); in assay [6] it was 35.3 µM (inactive). Further, the GI50 was 36.5 µM (inactive) in assay [7]; 41.3 µM (inactive) in [8]; 23.7 µM (inactive) in [9]; 30.5 µM (inactive) in assay [10]; 17.9 µM (inactive) in assay [11]; 29.4 µM (inactive) in [12]. Further, the GI50 is 27.5 µM (inactive) in assay [13]; 79.8 µM (inactive) in assay [14]; 48.2 µM (inactive) in assay [15]; 60.4 µM (inactive) in [16]; 34.7 µM (inactive) in [17]; 44.9 µM (inactive) in assay [18]. In addition, the GI50 in assay [19] is 69.2 µM (inactive).

Take `CCCN1CN(c2ccccc2)C2(CCN(CCCC(=O)c3ccc(F)cc3)CC2)C1=O`: the GI50 in assay [1] was 16.6 µM (inactive); in assay [2], 4.61 µM (inactive); in assay [3], 12.4 µM (inactive); in assay [4] it was 10.2 µM (inactive); in [5], 2.7 µM (inactive); in assay [6], 12.7 µM (inactive). The GI50 in assay [7] was 6.93 µM (inactive); in assay [8], 6.61 µM (inactive); in assay [9] it was 16.3 µM (inactive); in assay [10] it was 9.38 µM (inactive); in assay [11], 2.94 µM (inactive); in assay [12], 2.18 µM (inactive). Further, the GI50 was 4.2 µM (inactive) in assay [13]; 5.15 µM (inactive) in assay [14]; 5.15 µM (inactive) in assay [15]; 4.61 µM (inactive) in assay [16]; 11.6 µM (inactive) in assay [17]; 19.1 µM (inactive) in assay [18]. Moreover, in [19], the GI50 is 1.53 µM (inactive).

On to `COP(=O)(OC)/C(=C/c1cn(C(c2ccccc2)(c2ccccc2)c2ccccc2)cn1)NC=O`, for which the GI50 is > 100 µM (inactive) in assay [1]; 26.4 µM (inactive) in [2]; 15.1 µM (inactive) in assay [3]; 17 µM (inactive) in assay [4]; 17.7 µM (inactive) in [5]; 16.4 µM (inactive) in [6]. Also, the GI50 is 16.2 µM (inactive) in [7]; 23.4 µM (inactive) in assay [8]; 18.7 µM (inactive) in assay [9]; 19.2 µM (inactive) in assay [10]; 19.2 µM (inactive) in [11]; 13.8 µM (inactive) in assay [12]. Further, the GI50 in assay [13] was > 100 µM (inactive); in assay [14], 26 µM (inactive); in assay [15], 29.4 µM (inactive); in [16], 20.4 µM (inactive); in [17], 16.9 µM (inactive); in [18], 34 µM (inactive). Moreover, the GI50 in assay [19] was 21.6 µM (inactive).

In the case of `COc1cc2oc(=O)ccc2cc1C1OC(=O)C2OC21C` (centres undefined), the GI50 in assay [1], in assay [2], in assay [3], in [4], in assay [5] and in assay [6] was > 100 µM (inactive) each time. The GI50 in assay [7], in [8], in assay [9], in assay [10], in assay [11] and in assay [12] was > 100 µM (inactive) throughout. In addition, the GI50 in assay [13], in [14], in assay [15], in assay [16], in [17] and in [18] was > 100 µM (inactive) each time. Also, the GI50 in assay [19] was > 100 µM (inactive).

For `COc1cc2c3c(c1)c1cc(OC)c(OC)cc1c[n+]3CC2`, the GI50 in [1] was 21.8 µM (inactive); in [2], 5.35 µM (inactive); in assay [3] it was > 50 µM (inactive); in [4], 25.8 µM (inactive); in assay [5], 5.73 µM (inactive); in assay [6], 4.32 µM (inactive). Also, the GI50 was > 50 µM (inactive) in [7]; > 50 µM (inactive) in assay [8]; 19.1 µM (inactive) in [9]; 24.8 µM (inactive) in [10]; 1.53 µM (inactive) in assay [11]; 8.36 µM (inactive) in assay [12]. Also, the GI50 in [13] is 2 µM (inactive); in [14] it was > 50 µM (inactive); in assay [15], 1.61 µM (inactive); in assay [16], 30.6 µM (inactive); in assay [17], 31.8 µM (inactive); in assay [18] it was > 50 µM (inactive). In [19], the GI50 is 31.8 µM (inactive).

For `C[C@@H](NC(=O)c1ccc(CNC(=O)/C=C/c2cccc(Oc3ccccc3)c2)cc1)c1ccccc1`, the GI50 in assay [1] is > 100 µM (inactive); in [2] it was 27.7 µM (inactive); in [3], 99.1 µM (inactive); in [4], > 42.4 µM (inactive); in assay [5], 17.9 µM (inactive); in [6] it was 34.7 µM (inactive). The GI50 in assay [7] was > 100 µM (inactive); in assay [8] it was 14 µM (inactive); in assay [9], > 82.6 µM (inactive); in assay [10] it was > 100 µM (inactive); in assay [11] it was > 100 µM (inactive); in [12] it was > 69.3 µM (inactive). Moreover, the GI50 in assay [13] was > 100 µM (inactive); in assay [14], > 100 µM (inactive); in [15], 13.9 µM (inactive); in assay [16], 14.7 µM (inactive); in assay [17], > 60.1 µM (inactive); in assay [18], > 93.1 µM (inactive). For the same compound, the GI50 in assay [19] is > 100 µM (inactive).

Regarding `Nc1cccc(Nc2nc3ccccc3nc2NS(=O)(=O)c2ccccc2)c1`, the GI50 in assay [1] is 20.3 µM (inactive); in assay [2], 24.7 µM (inactive); in assay [3], 26.2 µM (inactive); in assay [4] it was 19.5 µM (inactive); in assay [5], 26.7 µM (inactive); in assay [6], 22.1 µM (inactive). Also, the GI50 in assay [7] was 14.8 µM (inactive); in [8], 33 µM (inactive); in assay [9] it was 20.7 µM (inactive); in assay [10], 33.4 µM (inactive); in assay [11], 26 µM (inactive); in assay [12], 17.3 µM (inactive). The GI50 was 15.9 µM (inactive) in [13]; 18.4 µM (inactive) in assay [14]; 29 µM (inactive) in assay [15]; 27 µM (inactive) in [16]; 15.7 µM (inactive) in [17]; 30.4 µM (inactive) in [18]. For the same compound, the GI50 in [19] is 31.5 µM (inactive).

For the compound `O=[Se](O)O`, the GI50 in assay [1] is 10 µM (inactive); in assay [2] it was > 40 µM (inactive); in assay [3] it was 3.44 µM (inactive); in assay [4], 1.1 µM (active); in assay [5], 0.577 µM (active); in [6], 0.762 µM (active). Further, the GI50 in [7] is 1 µM (active); in [8], 1.15 µM (inactive); in [9] it was 1.32 µM (inactive); in assay [10] it was 2.24 µM (inactive); in [11] it was 1.24 µM (inactive); in assay [12], 2.36 µM (inactive). Further, the GI50 in assay [13] was > 20.1 µM (inactive); in assay [14], 12.9 µM (inactive); in assay [15] it was 2.47 µM (inactive); in assay [16], 34.2 µM (inactive); in assay [17] it was 2.6 µM (inactive); in assay [18], 0.984 µM (active). In addition, in [19], the GI50 is 1.47 µM (inactive).

Take `N#CC1=C(C#N)/C(=C(\C#N)C(C#N)C#N)N=C1N`: the GI50 is 25.2 µM (inactive) in assay [1]; > 100 µM (inactive) in assay [2]; 15.6 µM (inactive) in assay [3]; 28.7 µM (inactive) in assay [4]; 26.7 µM (inactive) in assay [5]; 28.6 µM (inactive) in [6]. The GI50 in assay [7] is 91.4 µM (inactive); in assay [8], 21.4 µM (inactive); in assay [9], 15.1 µM (inactive); in assay [10] it was 15.4 µM (inactive); in assay [11] it was 49.4 µM (inactive); in [12], 27.4 µM (inactive). Besides, the GI50 in [13] is 13.4 µM (inactive); in [14] it was 28.5 µM (inactive); in assay [15], 39.4 µM (inactive); in assay [16], 46.2 µM (inactive); in [17] it was 14.7 µM (inactive); in assay [18] it was 57.9 µM (inactive). Moreover, the GI50 in assay [19] was 38.9 µM (inactive).
